Measurements as given in patent US11186589B2, “Cyanoindoline derivatives as NIK inhibitors” (Janssen Pharmaceutica NV, priority 2016, dated 2021).

These molecules were tested against NIK/MAP3K14 (Homo sapiens (Human), UniProt Q99558) (assay: Inhibition of auto-phosphorylation of recombinant human NF-kappaB-inducing kinase (NIK/MAP3K14) activity (AlphaScreen)). Details: averaged values over all measurements on all batches, 25 microM ATP.
Assay type: biochemical
Description: Inhibition of Auto-Phosphorylation of Recombinant Human NF-kappaB-Inducing Kinase ([…]) Activity (AlphaScreen®)
NIK/MAP3K14 auto-phosphorylation activity was measured using the AlphaScreen® (αscreen) format (Perkin Elmer). All compounds tested were dissolved in dimethyl sulfoxide (DMSO) and further dilutions were made in assay buffer. Final DMSO concentration was […] in assays. Assay buffer was 50 mM Tris pH 7.5 containing 1 mM EGTA (ethylene glycol tetraacetic acid), 1 mM DTT (dithiothreitol), 0.1 mM Na3VO4, 5 mM MgCl2, 0.01% Tween® 20. Assays were carried out in 384 well Alphaplates (Perkin Elmer). Incubations consisted of compound, 25 microM Adenosine-5′-triphosphate (ATP), and 0.2 nM NIK/MAP3K14. Incubations were initiated by addition of GST-tagged NIK/MAP3K14 enzyme, carried out for 1 h at 25° C. and terminated by addition of stop buffer containing anti-phospho-[…] Ser176/180 antibody. Protein A Acceptor and Glutathione-Donor beads were added before reading using an EnVision® Multilabel Plate Reader (Perkin Elmer). Signal obtained in the wells containing blank samples was subtracted from all other wells and IC50's were determined by fitting a sigmoidal curve to % inhibition of control versus Log10 compound concentration.

Sequence of NIK/MAP3K14 (Q99558 whole entry): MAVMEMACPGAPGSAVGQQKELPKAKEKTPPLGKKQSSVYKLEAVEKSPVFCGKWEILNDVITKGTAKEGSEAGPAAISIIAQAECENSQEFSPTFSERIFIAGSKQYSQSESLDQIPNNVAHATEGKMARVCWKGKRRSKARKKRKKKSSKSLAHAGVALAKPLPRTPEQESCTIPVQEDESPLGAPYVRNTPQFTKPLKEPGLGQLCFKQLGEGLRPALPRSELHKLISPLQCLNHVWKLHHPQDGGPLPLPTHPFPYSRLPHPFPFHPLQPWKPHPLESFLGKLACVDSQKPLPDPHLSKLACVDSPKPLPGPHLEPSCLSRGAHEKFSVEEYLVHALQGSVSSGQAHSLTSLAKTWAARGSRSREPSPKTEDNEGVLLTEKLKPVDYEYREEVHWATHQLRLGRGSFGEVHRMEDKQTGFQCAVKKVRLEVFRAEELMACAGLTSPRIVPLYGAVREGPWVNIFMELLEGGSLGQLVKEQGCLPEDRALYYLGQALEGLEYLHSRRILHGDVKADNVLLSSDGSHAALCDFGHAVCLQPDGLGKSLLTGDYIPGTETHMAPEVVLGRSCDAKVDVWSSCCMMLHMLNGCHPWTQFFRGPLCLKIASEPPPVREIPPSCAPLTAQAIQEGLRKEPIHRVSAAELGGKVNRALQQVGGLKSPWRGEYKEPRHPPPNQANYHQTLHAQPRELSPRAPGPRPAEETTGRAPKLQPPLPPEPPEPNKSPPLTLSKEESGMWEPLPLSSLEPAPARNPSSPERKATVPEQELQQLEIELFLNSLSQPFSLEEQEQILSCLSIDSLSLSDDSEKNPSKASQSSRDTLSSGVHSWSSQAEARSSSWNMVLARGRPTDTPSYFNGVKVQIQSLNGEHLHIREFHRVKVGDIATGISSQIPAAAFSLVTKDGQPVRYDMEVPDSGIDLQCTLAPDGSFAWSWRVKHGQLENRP

IC50 [nM]	Structure (SMILES)
1.5	C[C@]1(CO)CNc2c(C#N)cc(-c3ccnc(Nc4cnn5c4COCC5)n3)cc21 [Compound 12b]
12.9	COc1cc2c(cc1Nc1nccc(-c3cc(C#N)c4c(c3)C(C)(CO)CN4)n1)NC(=O)CC2 (stereo not shown) [Compound 59]
2240	C[C@]1(CO)CNc2c(C#N)cc(-c3ccnc(Nc4cc5c(nc4C#CC4CC4)CCOC5)n3)cc21 [Compound 22]
6.2	CC1CC(C)n2ncc(Nc3nccc(-c4cc(C#N)c5c(c4)C(C)(CO)CN5)n3)c2O1 (racemic) [Compound 20b]
4.3	CC1(CO)CNc2c(C#N)cc(-c3ccnc(Nc4ccc5c(c4F)CCN5)n3)cc21 (stereo not shown) [Compound 37]
10.5	CN(C)C(=O)c1cc2cc(Nc3nccc(-c4cc(C#N)c5c(c4)C(C)(C)CN5)n3)ccc2[nH]1 [Compound 12c]
4.3	COc1cc2c(cc1Nc1nccc(-c3cc(C#N)c4c(c3)C(C)(CO)CN4)n1)CCN2C(=O)CN(C)C (stereo not shown) [Compound 40]
4.3	CN1CCc2nc(OCC3CC3)c(Nc3nccc(-c4cc(C#N)c5c(c4)[C@@](C)(CO)CN5)n3)cc2C1 [Compound 35]
6.2	COc1cc2[nH]ccc2cc1Nc1nccc(-c2cc(C#N)c3c(c2)C(C)(CO)CN3)n1 (stereo not shown) [Compound 13c]
3.7	CC(=O)N1CCc2c1ccc(Nc1nccc(-c3cc(C#N)c4c(c3)C(C)(CO)CN4)n1)c2F (stereo not shown) [Compound 36]
34.7	CC(C)Oc1nc2c(cc1Nc1nccc(-c3cc(C#N)c4c(c3)[C@@](C)(CO)CN4)n1)CN(C1CC1)CC2 [Compound 49]
2.5	COc1cc2c(cc1Nc1nccc(-c3cc(C#N)c4c(c3)C(C)(CO)CN4)n1)CCN2C(C)=O (stereo not shown) [Compound 39]

Structure (SMILES)	IC50 [nM]
Cc1c(Nc2nccc(-c3cc(C#N)c4c(c3)C(C)(CO)CN4)n2)ccc2c1CC(=O)N2 (stereo not shown) [Compound 42]	8.9

What follows are molecules tested on KMS12-BM cells (assay: Antiproliferative activity on KMS12-BM (NIK WT) multiple myeloma cells (CellTiter-Glo)). Details: Homo sapiens, KMS-12-BM, 96 h, 96 hr treatment, averaged values, read-out: KMS-12 Proliferation inhibition (IC50 (nM)).
Assay type: cell-based, human
Description: (§1) Determination of Antiproliferative Activity on JJN-3 (NIK Translocated) and KMS12-BM (NIK WT) Multiple Myeloma Cells
(§2) All compounds tested were dissolved in DMSO and further dilutions were made in culture medium. Final DMSO concentration was 0.3% (v/v) in cell proliferation assays. Viability was assessed using CellTiter-Glo cell viability assay kit (Promega). The human JJN-3 and KMS12-BM cells (DSMZ) were cultured in RPMI 1640 medium supplemented with 2 mM L-glutamine, and 10% fetal calf serum (PAA). Cells were routinely kept as suspension cells at 37° C. in a humidified 5% CO2 atmosphere. Cells were passaged at a seeding density of 0.2×10^6/ml twice a week. Cells were seeded in black tissue culture treated 96-well plates (Perkin Elmer). Densities used for plating ranged from 15000 (JJN3) to 20000 (KMS12BM) cells per well in a total volume of […]. Drugs and/or solvents were added (15 μl) to a final volume of 150 μl. Following 96 hr of treatment, plates were removed from the incubator and allowed to equilibrate to room temperature for approx 10 min. 75 μl CellTiter-Glo reagent was added to each well that was then covered (Perkin Elmer Topseal) and shaken on plate shaker for 10 min. Luminescence was measured on a HTS Topcount (Perkin Elmer). Within an experiment, the results for each treatment were the mean of 2 replicate wells. For initial screening purposes, compounds were tested using a 9 point dilution curve (serial 1:3 dilutions). For each experiment, controls (containing no drug) and a blank incubation (containing cells read at the time of compound addition) were run in parallel. The blank value was subtracted from all control and sample values. For each sample, the mean value for cell growth (in relative light units) was expressed as a percentage of the mean value for cell growth of the control.

IC50 [nM]	Structure (SMILES)
> 10000	CC1(C)CNc2c(C#N)cc(-c3ccnc(Nc4cc(Cl)cc5[nH]ccc45)n3)cc21 [Compound 7c]
~549	C[C@]1(CO)CNc2c(C#N)cc(-c3ccnc(Nc4cnn5c4COCC5)n3)cc21 [Compound 12b]
~468	COc1nc2c(cc1Nc1nccc(-c3cc(C#N)c4c(c3)[C@@](C)(CO)CN4)n1)CCN(C)C2 [Compound 53]
~9	CN1CCc2ncc(Nc3ncc(F)c(-c4cc(C#N)c5c(c4)[C@@](C)(CO)CN5)n3)cc2C1 [Compound 54]

The molecules below were run on P-IKKα levels in L363 cells (assay: Effect of compounds on P-IKKα levels in L363 (NIK translocated multiple myeloma) cells). Details: 2 hr treatment, averaged values, read-out: Inhibition of pIKKα_L-363 (IC50 (nM)).
Assay type: cell-based, human
Description: Effect of Compounds on P-IKKα Levels in L363 (NIK Translocated Multiple Myeloma) Cells
All compounds tested were dissolved in DMSO and further dilutions were made in culture medium. Final DMSO concentration was 1% (v/v) in cell assays. The human L363 cells (ATCC) were cultured in RPMI 1640 medium supplemented with GlutaMax and 10% fetal calf serum (PAA). Cells were routinely maintained at densities of 0.2×10^6 cells per ml—1×10^6 cells per ml at 37° C. in a humidified 5% CO2 atmosphere. Cells were passaged twice a week splitting back to obtain the low density. Cells were seeded in 96 well plates (Nunc 167008) at 2×10^6 per ml media in a volume of 75 μl per well plus 25 μl 1 μg/ml recombinant human B-cell activating factor (BAFF/BLyS/TNFSF13B). Seeded cells were incubated at 37° C. in a humidified 5% CO2 atmosphere for 24 hr. Drugs and/or solvents were added (20 μl) to a final volume of 120 μl. Following 2 hr treatment plates were removed from the incubator and cell lysis was achieved by the addition of 30 μl 5× lysis buffer followed by shaking on a plate shaker at 4° C. for 10 min. At the end of this incubation lysed cells were centrifuged at 800×g for 20 min at 4° C. and the lysate was assessed for P-IKKα levels by sandwich immuno-assay carried out in anti-rabbit antibody coated Mesoscale plates. Within an experiment, the results for each treatment were the mean of 2 replicate wells. For initial screening purposes, compounds were tested using an 8 point dilution curve (serial 1:3 dilutions). For each experiment, controls (containing MG132 and BAFF but no test drug) and a blank incubation (containing MG132 and BAFF and 10 μM ADS125117, a test concentration known to give full inhibition) were run in parallel. The blank incubation value was subtracted from all control and sample values. To determine the IC50 a sigmoidal curve was fitted to the plot of % inhibition of control P-IKKα levels versus Log10 compound concentration.

Structure (SMILES)	IC50 [nM]
CC1CC(C)n2ncc(Nc3nccc(-c4cc(C#N)c5c(c4)C(C)(CO)CN5)n3)c2O1 (racemic) [Compound 20b]	2
Cc1c(Nc2nccc(-c3cc(C#N)c4c(c3)C(C)(CO)CN4)n2)ccc2c1CC(=O)N2 (stereo not shown) [Compound 42]	36

Same assay, conditions: Homo sapiens, L-363, 2 h, 2 hr treatment, averaged values, read-out: Inhibition of pIKKα_L-363 (IC50 (nM))

IC50 [nM]	Structure (SMILES)
72	CC1(C)CNc2c(C#N)cc(-c3ccnc(Nc4cc(Cl)cc5[nH]ccc45)n3)cc21 [Compound 7c]
4	C[C@]1(CO)CNc2c(C#N)cc(-c3ccnc(Nc4cnn5c4COCC5)n3)cc21 [Compound 12b]
37	COc1cc2c(cc1Nc1nccc(-c3cc(C#N)c4c(c3)C(C)(CO)CN4)n1)NC(=O)CC2 (stereo not shown) [Compound 59]
> 10000	C[C@]1(CO)CNc2c(C#N)cc(-c3ccnc(Nc4cc5c(nc4C#CC4CC4)CCOC5)n3)cc21 [Compound 22]
1	COc1nc2c(cc1Nc1nccc(-c3cc(C#N)c4c(c3)[C@@](C)(CO)CN4)n1)CCN(C)C2 [Compound 53]
9	CC1(CO)CNc2c(C#N)cc(-c3ccnc(Nc4ccc5c(c4F)CCN5)n3)cc21 (stereo not shown) [Compound 37]
14	CN(C)C(=O)c1cc2cc(Nc3nccc(-c4cc(C#N)c5c(c4)C(C)(C)CN5)n3)ccc2[nH]1 [Compound 12c]
2	CN1CCc2ncc(Nc3ncc(F)c(-c4cc(C#N)c5c(c4)[C@@](C)(CO)CN5)n3)cc2C1 [Compound 54]
3	COc1cc2c(cc1Nc1nccc(-c3cc(C#N)c4c(c3)C(C)(CO)CN4)n1)CCN2C(=O)CN(C)C (stereo not shown) [Compound 40]
69	CN1CCc2nc(OCC3CC3)c(Nc3nccc(-c4cc(C#N)c5c(c4)[C@@](C)(CO)CN5)n3)cc2C1 [Compound 35]
3	COc1cc2[nH]ccc2cc1Nc1nccc(-c2cc(C#N)c3c(c2)C(C)(CO)CN3)n1 (stereo not shown) [Compound 13c]
16	CC(=O)N1CCc2c1ccc(Nc1nccc(-c3cc(C#N)c4c(c3)C(C)(CO)CN4)n1)c2F (stereo not shown) [Compound 36]
115	CC(C)Oc1nc2c(cc1Nc1nccc(-c3cc(C#N)c4c(c3)[C@@](C)(CO)CN4)n1)CN(C1CC1)CC2 [Compound 49]
3	COc1cc2c(cc1Nc1nccc(-c3cc(C#N)c4c(c3)C(C)(CO)CN4)n1)CCN2C(C)=O (stereo not shown) [Compound 39]

What follows are molecules tested on JJN-3 cells (assay: Antiproliferative activity on JJN-3 (NIK translocated) multiple myeloma cells (CellTiter-Glo)). Details: Homo sapiens, JJN-3, 96 h, JJN-3 (NIK translocated) cells, 96 hr treatment, averaged values, read-out: JJN-3 Proliferation inhibition (IC50 (nM)).
Assay type: cell-based, human
Description: as §1, §2

IC50 [nM]	Structure (SMILES)
537	CC1(C)CNc2c(C#N)cc(-c3ccnc(Nc4cc(Cl)cc5[nH]ccc45)n3)cc21 [Compound 7c]
251	C[C@]1(CO)CNc2c(C#N)cc(-c3ccnc(Nc4cnn5c4COCC5)n3)cc21 [Compound 12b]
12	COc1nc2c(cc1Nc1nccc(-c3cc(C#N)c4c(c3)[C@@](C)(CO)CN4)n1)CCN(C)C2 [Compound 53]
~7	CN1CCc2ncc(Nc3ncc(F)c(-c4cc(C#N)c5c(c4)[C@@](C)(CO)CN5)n3)cc2C1 [Compound 54]
